Reference: patent publication US20110124614A1, “Methods And Compositions For The Treatment of Autoimmune Disorders” (priority 2008, published 2011)
Several values for one entry are separate records, joined by “and”; a condition that tells them apart may be missing. Identical values can stand only once. Marks after values point to notes of the source that are not given here.

Experiments:
[1] = test system: CNS infiltration and demyelination in GPR30KO EAE mice; assay: Spinal cord histology (H&E, LFB-PAS), GPR30KO EAE mice; format: in vivo, mouse; settings: E2-treated GPR30-KO mice, FIG. 1B
From the text: Spinal cords were dissected out for histology. Intact spinal columns were removed and dissected after fixation in 4% paraformaldehyde, dehydrated and embedding in paraffin. To examine neuroinflammation, the sections were stained with hematoxylin and eosin (H&E). To examine demyelination, the sections were stained with Luxon fast blue plus periodic acid Schiff (LFB-PAS).

[2] = test system: PD-1 expression in CD4^+FoxP3^+ or CD4^+FoxP3^− T cells; assay: PD-1 expression in CD4+FoxP3+/FoxP3- T cells by flow cytometry, E2-treated WT vs knockout mice (Example V); format: in vivo, mouse
Description: Age matched WT C57BL/6 from the animal service at National Cancer Institute (Frederick, Md.), GPR30KO prepared as in Example 1, or PDD-KO mice (Dr. […] Splenocytes or lymph node cells from GPR30KO mice were obtained at the end of the clinical experiment in FIG. 1A and stained for FoxP3 and PD-1, as well as cellular markers for T cells and antigen presenting cells (APC). For membrane staining, 1 million cells were stained at 4° C. in the dark with appropriate Ab dilutions in staining buffer (PBS containing 0.5% BSA and 0.02% sodium azide), Intracellular staining for FoxP3 was performed following the protocol recommended by eBioscience (San Diego, Calif.). Briefly, 4 million cells were surface stained following standard procedures. After washing, the cells were fixed overnight and washed twice with 0.5 ml of permeabilization buffer. […] Flow cytometry data were collected on LSRII and FACSCalibur flow cytometers (BD Bioscience, Franklin Lakes, N.J.), and analyzed using FlowJo software (Tree Star, Ashland, Oreg.). […] The expression levels of PD-1 were analyzed by gating on CD4^+FoxP3^+ or CD4^+FoxP3^− T cells from WT or GPR30 mice. The bar charts in FIG. 5A show the average mean fluorescence intensity (MFI) of Pd-1 in CD4^+FoxP3^+ or CD4^+FoxP3^− from all mice in each group. […]

EAE in wild-type B6 mice = assay: EAE clinical scoring, G-1 vs E2 pellets at different doses, wild-type B6 mice (Example III); format: in vivo, mouse; settings: for CDI / Daily / Mortality / Onset / Peak / Incidence: 34 days
[3] = test system: EAE in heterozygous (GPR30^+/−) female mice; settings: mouse, in vivo
[4] = test system: cytokine secretion by splenocytes of PD-1KO immunized mice; assay: Cytokine secretion of mMog-35-55 stimulated splenocytes, Luminex, PD-1KO mice; format: in vivo, mouse; settings: G-1 treated PD-1KO mice
Description: PD-1KO (Dr. […] One week after implantation experimental autoimmune encephalomyelitis (EAE) was induced. Splenocytes were harvested from […] cell proliferation and cytokine secretion in 48 h supernatants. (*P<0.05, or **P<0.01 compared to placebo). Lymph node and spleen cells were cultured at 4×10^6 cells/well in a 24 well flat-bottom culture plate in stimulation medium (RPMI 1640, 1% sodium pyruvate, 1% L-glutamine, 0.4% 2-β-ME, 10% FBS) with 25 μg/ml mMog-35-55 peptide for 48H. Supernatants were then harvested and stored at -80° C. until tested for cytokines. Culture supernatants were assessed for cytokine levels using a Luminex Bio-Plex mouse cytokine assay kit (BioRad, Hercules, Calif.) following the manufacturer's instructions. The following cytokines were determined in a single assay in three separate experiments: IL-1βIFN-γ, TNF-α, IL-2, IL-4, IL-5. IL-6, IL-12, IL-13, and IL-17. […] This cytokine profile was drastically altered in G-1 treated PD-1Ko mice. The decrease of Il-17 and increase of Il-6, Il-10 and IFN-γ production were abolished, whereas the reduction in IL-2 and Il-4 remained. Thus PD-1 was required for […] downregulation of IL-17 but not Il-2 and Il-4, and upregulation of IL-6, Il10 and IFN-γ.

[5] = test system: splenocytes of PD-1KO EAE mice; assay: Ex vivo T cell proliferation to mMOG-35-55, PD-1KO mice; format: in vivo, mouse; settings: G-1 treatment, FIG. 6B
Description: Splenocytes and lymph node cells were harvested ex-vivo from G-1 and E2 implanted mice and cultured in a 96-well flat bottom tissue culture plate at 4×10^5 cells/well in stimulation medium in the presence of APC, irradiated (2500 rad) syngenic thymocytes at a ration of 1:10 (T:APCs) wither with or without mMog 35-55 peptide at varying concentrations. The cells were incubated for 3 days at 37° C. in 7% CO2 and pulsed with 0.5 μCi of [^3H] thymidine (Perkin-Elmer, Boston, Mass.) for the final 18 h of incubation. The cells were harvested onto glass fiber filters, and incorporated radioactivity was measured by a liquid scintillation counter. The cpm values (mean±SD) were calculated from triplicate wells. Stimulation index (SI) was calculated by dividing the experimental cpm by the control cpm.
Splenocytes from placebo and G-1 treatment groups were evaluated for T cell proliferation and cytokine secretion in 48 h supernatants.

uteri = assay: Uterine weight (estrogenic effect); set-up: species or system mouse; settings: G-1 treatment in vivo, FIG. 2E
From the text: (§1) Treatment with G-1 in viva lacked the “estrogenic effects” of E2.

[6] = test system: liver, eyes, heart, mammary gland, brain, spleen, kidney, muscle, lung; assay: H&E organ histology in G-1 treated naive mice; format: in vivo, mouse; settings: 1.8 mg G-1 treated naive mice
From the text: as §1

SMILES: C[C@]12CC[C@@H]3c4ccc(O)cc4CC[C@H]3[C@@H]1CC[C@@H]2O [E2, 17β estradiol]
- cellular infiltration and demyelination in CNS [1]: visibly present, but at a reduced level
- PD-1 expression in non-regulatory CD4^+FoxP3^− T cells ([2]; WT or PD-1KO mice (so in the source)): did not induce a significant shift
- E2 induced upregulation of PD-1 expression in CD4+FoxP3+ cells ([2]; splenocytes from PD-1KO mice (so in the source), FIG. 5A): abolished
- CDI (EAE in wild-type B6 mice; 0.025 mg E2 pellet): 37.0 ± 21.6
- Daily (EAE in wild-type B6 mice; 0.025 mg E2 pellet): 1.7 ± 1.0
- Mortality (EAE in wild-type B6 mice; 0.025 mg E2 pellet): 0/5
- Onset (EAE in wild-type B6 mice; 0.025 mg E2 pellet): 14.8 ± 0.5
- Peak (EAE in wild-type B6 mice; 0.025 mg E2 pellet): 2.8 ± 1.6
- Incidence (EAE in wild-type B6 mice; 0.025 mg/60 day release E2 pellet): 4/5
- CDI (EAE in wild-type B6 mice; 0.1 mg E2 pellet): 9.1 ± 14.8
- Daily (EAE in wild-type B6 mice; 0.1 mg E2 pellet): 0.3 ± 0.6
- Mortality (EAE in wild-type B6 mice; 0.1 mg E2 pellet): 0/10
- Onset (EAE in wild-type B6 mice; 0.1 mg E2 pellet): 21.0 ± 6.1
- Peak (EAE in wild-type B6 mice; 0.1 mg E2 pellet): 0.8 ± 1.2
- Incidence (EAE in wild-type B6 mice; 0.1 mg/60 day release E2 pellet): 3/10**
- CDI (EAE in wild-type B6 mice; 2.5 mg E2 pellet): 0**
- Daily (EAE in wild-type B6 mice; 2.5 mg E2 pellet): 0**
- Mortality (EAE in wild-type B6 mice; 2.5 mg E2 pellet): 0/7
- Peak (EAE in wild-type B6 mice; 2.5 mg E2 pellet): 0**
- Incidence (EAE in wild-type B6 mice; 2.5 mg/60 day release E2 pellet): 0/7**
- protection from clinical EAE (in words) (EAE in wild-type B6 mice; 2.5 mg/60 day release E2 pellets): completely protected
- Daily [3]: 2.6 ± 0.8
- Incidence [3]: 4/7 and 5/10
- Mortality [3]: 0/7 and 0/10
- Onset [3]: 20.0 ± 1.0
- clinical EAE (in words) [3]: delayed onset and were only partially protected from EAE

SMILES: CC(=O)c1ccc2c(c1)C1C=CCC1C(c1cc3c(cc1Br)OCO3)N2 (stereo not shown) [G-1]
- decrease of Il-17 production [4]: abolished
- increase of IFN-γ production [4]: abolished
- increase of Il-6 production [4]: abolished
- increase of Il-10 production [4]: abolished
- reduction in IL-2 [4]: remained
- reduction in Il-4 [4]: remained
- T cell proliferation to mMog-35-55 [5]: did not significantly change
- weight of uteri (uteri): did not significantly change
- CDI (EAE in wild-type B6 mice; 0.01 mg G-1 pellet): 43.8 ± 39.9
- Daily (EAE in wild-type B6 mice; 0.01 mg G-1 pellet): 1.8 ± 1.6
- Mortality (EAE in wild-type B6 mice; 0.01 mg G-1 pellet): 0/6
- Onset (EAE in wild-type B6 mice; 0.01 mg G-1 pellet): 13.6 ± 1.6
- Peak (EAE in wild-type B6 mice; 0.01 mg G-1 pellet): 3.1 ± 1.7
- Incidence (EAE in wild-type B6 mice; 0.01 mg/40 day release G-1 pellet): 5/6
- CDI (EAE in wild-type B6 mice; 0.1 mg G-1 pellet): 18.8 ± 28.3
- Daily (EAE in wild-type B6 mice; 0.1 mg G-1 pellet): 0.75 ± 1.3
- Mortality (EAE in wild-type B6 mice; 0.1 mg G-1 pellet): 0/6
- Onset (EAE in wild-type B6 mice; 0.1 mg G-1 pellet): 16.7 ± 2.3
- Peak (EAE in wild-type B6 mice; 0.1 mg G-1 pellet): 1.5 ± 1.6
- Incidence (EAE in wild-type B6 mice; 0.1 mg/40 day release G-1 pellet): 3/6
- CDI (EAE in wild-type B6 mice; 1.8 mg G-1 pellet): 0**
- Daily (EAE in wild-type B6 mice; 1.8 mg G-1 pellet): 0**
- Mortality (EAE in wild-type B6 mice; 1.8 mg G-1 pellet): 0/7
- Peak (EAE in wild-type B6 mice; 1.8 mg G-1 pellet): 0**
- Incidence (EAE in wild-type B6 mice; 1.8 mg/40 day release G-1 pellet one week before immunization): 0/7**
- protection from clinical EAE (in words) (EAE in wild-type B6 mice; 1.8 mg/40 day release G-1 pellets): completely protected
- clinical EAE (in words), dose dependence (EAE in wild-type B6 mice; G-1 pellets 1.8, 0.1 or 0.01 mg/40 day release): delayed and ameliorated EAE in a dose-dependent manner
- protection from clinical EAE compared with E2 (EAE in wild-type B6 mice; lower doses of G-1 pellets): less effective than E2
- abnormalities by H&E staining in liver, eyes, heart, mammary gland, brain, spleen, kidney, muscle or lung [6]: no abnormalities
